# Assay results published in patent publication US10183009B2, “Therapeutic compounds and uses thereof” (GENENTECH, INC., priority 2014, dated 2019).
# Molecular target: BRD9 (Homo sapiens (Human), UniProt Q9H8M2)
# Test: BRD9 AlphaLisa Binding Assay
# Experimental: After 20 minutes incubation at room temperature AlphaLisa Streptavidin Acceptor Beads (Perkin-A[…]) and AlphaLisa Nickel donor beads (Perkin AS 10 ID) were added to a final concentration of 15 ug/mL each.
# BRD9, sequence (Q9H8M2 134-239 limits assumed): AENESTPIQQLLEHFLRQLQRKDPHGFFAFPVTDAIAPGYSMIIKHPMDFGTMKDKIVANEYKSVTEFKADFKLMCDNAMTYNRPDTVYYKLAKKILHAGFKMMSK
row,Compound,IC50 [nM]
1,"CCCCn1cc(-c2ncc(C(=O)N3CCOCC3)cc2OC)c2cc(C)[nH]c2c1=O [Example 123, 6-butyl-4-[3-methoxy-5-(morpholine-4-carbonyl)-2-pyridyl]-2-methyl-1H-pyrrolo[2,3-c]pyridin-7-one]",210
2,"C/C=C/Cn1cc(-c2cc(C(=O)N(C)C)ccc2OC)c2cc[nH]c2c1=O [Example 64, 3-[6-[(E)-but-2-enyl]-7-oxo-1H-pyrrolo[2,3-c]pyridin-4-yl]-4-methoxy-N,N-dimethyl-benzamide]",56
3,"C/C=C/Cn1cc(-c2ccc(NS(C)(=O)=O)cc2)c2cc[nH]c2c1=O [Example 34, N-[4-[6-[(E)-but-2-enyl]-7-oxo-1H-pyrrolo[2,3-c]pyridin-4-yl]phenyl]methanesulfonamide]",22
4,"C/C=C/Cn1cc(-c2ncc(C(=O)N3CCOCC3)cc2OC)c2cc(C)[nH]c2c1=O [Example 103, 6-[(E)-but-2-enyl]-4-[3-methoxy-5-(morpholine-4-carbonyl)-2-pyridyl]-2-methyl-1H-pyrrolo[2,3-c]pyridin-7-one]",46
5,"C/C=C/Cn1cc(-c2cnc(C(=O)N3CCOCC3)c(Cl)c2)c2cc(C)[nH]c2c1=O [Example 98, 6-[(E)-but-2-enyl]-4-[5-chloro-6-(morpholine-4-carbonyl)-3-pyridyl]-2-methyl-1H-pyrrolo[2,3-c]pyridin-7-one]",32
6,"C/C=C/Cn1cc(-c2cc(F)cc(C(=O)N(C)C)c2)c2cc[nH]c2c1=O [Example 19, 3-[6-[(E)-but-2-enyl]-7-oxo-1H-pyrrolo[2,3-c]pyridin-4-yl]-5-fluoro-N,N-dimethyl-benzamide]",94
7,"C/C=C/Cn1cc(-c2cc(C(=O)NCCO)ccc2OC)c2cc[nH]c2c1=O [Example 73, 3-[6-[(E)-but-2-enyl]-7-oxo-1H-pyrrolo[2,3-c]pyridin-4-yl]-N-(2-hydroxyethyl)-4-methoxy-benzamide]",35
8,"CCCCn1cc(-c2cc(C(=O)N3CC4(CN(C(C)=O)C4)C3)ccc2OC)c2cc[nH]c2c1=O [Example 78, 4-[5-(2-acetyl-2,6-diazaspiro[3.3]heptane-6-carbonyl)-2-methoxy-phenyl]-6-butyl-1H-pyrrolo[2,3-c]pyridin-7-one]",65
9,"C/C=C/Cn1cc(-c2cc(C(=O)NC)ccc2OC)c2cc[nH]c2c1=O [Example 67, 3-[6-[(E)-but-2-enyl]-7-oxo-1H-pyrrolo[2,3-c]pyridin-4-yl]-4-methoxy-N-methyl-benzamide]",35
10,"C/C=C/Cn1cc(-c2ccc(C(=O)N3CCCC3)c(Cl)c2)c2cc[nH]c2c1=O [Example 52, 6-[(E)-but-2-enyl]-4-[3-chloro-4-(pyrrolidine-1-carbonyl)phenyl]-1H-pyrrolo[2,3-c]pyridin-7-one]",46
11,"CCCCn1cc(-c2ccc(C(C)(C)O)cc2)c2cc[nH]c2c1=O [Example 82, 6-butyl-4-[4-(1-hydroxy-1-methyl-ethyl)phenyl]-1H-pyrrolo[2,3-c]pyridin-7-one]",43
12,"C/C=C/Cn1cc(-c2ccc(C(=O)N3CCCC3)c(Cl)c2)c2cc(C)[nH]c2c1=O [Example 92, 6-[(E)-but-2-enyl]-4-[3-chloro-4-(pyrrolidine-1-carbonyl)phenyl]-2-methyl-1H-pyrrolo[2,3-c]pyridin-7-one]",10
13,"C/C=C/Cn1cc(-c2ccc(C(C)(C)O)cc2OC)c2cc(C)[nH]c2c1=O [Example 107, 6-[(E)-but-2-enyl]-4-[4-(1-hydroxy-1-methyl-ethyl)-2-methoxy-phenyl]-2-methyl-1H-pyrrolo[2,3-c]pyridin-7-one]",100
14,"C/C=C/Cn1cc(-c2ccc(C(=O)N3CC(n4ccc(N)n4)C3)c(Cl)c2)c2cc(C)[nH]c2c1=O [Example 117, (E)-4-(4-(3-(3-amino-1H-pyrazol-1-yl)azetidine-1-carbonyl)-3-chlorophenyl)-6-(but-2-en-1-yl)-2-methyl-1H-pyrrolo[2,3-c]pyridin-7(6H)-one]",5
15,"C/C=C/Cn1cc(-c2cnc(C(=O)N3CCOCC3)nc2)c2cc(C)[nH]c2c1=O [Example 105, 6-[(E)-but-2-enyl]-2-methyl-4-[2-(morpholine-4-carbonyl)pyrimidin-5-yl]-1H-pyrrolo[2,3-c]pyridin-7-one]",83
16,"CCCCn1cc(-c2ncc(C(=O)N3CCN(C)CC3)cc2OC)c2cc(C)[nH]c2c1=O [Example 122, 6-butyl-4-[3-methoxy-5-(4-methylpiperazine-1-carbonyl)-2-pyridyl]-2-methyl-1H-pyrrolo[2,3-c]pyridin-7-one]",180
17,"C/C=C/Cn1cc(-c2ccc(C(=O)N3CCOCC3)c(F)c2F)c2cc(C)[nH]c2c1=O [Example 93, 6-[(E)-but-2-enyl]-4-[2,3-difluoro-4-(morpholine-4-carbonyl)phenyl]-2-methyl-1H-pyrrolo[2,3-c]pyridin-7-one]",34
18,"C/C=C/Cn1cc(-c2ccc(C(=O)N3CCOCC3)c(OCC3CC3)c2)c2cc(C)[nH]c2c1=O [Example 115, 6-[(E)-but-2-enyl]-4-[3-(cyclopropylmethoxy)-4-(morpholine-4-carbonyl)phenyl]-2-methyl-1H-pyrrolo[2,3-c]pyridin-7-one]",5

row,Compound,IC50 [nM]
1,"C/C=C/Cn1cc(-c2cccc(C(=O)N(C)C)c2F)c2cc[nH]c2c1=O [Example 42, 3-[6-[(E)-but-2-enyl]-7-oxo-1H-pyrrolo[2,3-c]pyridin-4-yl]-fluoro-N,N-dimethyl-benzamide]",82
2,"C/C=C/Cn1cc(-c2ncc(C(=O)N3CCN(C)CC3)cc2OC)c2cc(C)[nH]c2c1=O [Example 110, 6-[(E)-but-2-enyl]-4-[3-methoxy-5-(4-methylpiperazine-1-carbonyl)-2-pyridyl]-2-methyl-1H-pyrrolo[2,3-c]pyridin-7-one]",39
3,"C/C=C/Cn1cc(-c2ccc(C(=O)N3CCC(C(=O)O)CC3)c(Cl)c2)c2cc(C)[nH]c2c1=O [Example 112, 1-[4-[6-[(E)-but-2-enyl]-2-methyl-7-oxo-1H-pyrrolo[2,3-c]pyridin-4-yl]-2-chloro-benzoyl]piperidine-4-carboxylic acid]",8
4,"C/C=C/Cn1cc(-c2ccc(C(=O)N3CC(n4ccc(N)n4)C3)cc2)c2cc(C)[nH]c2c1=O [Example 118, 4-[4-[3-(3-aminopyrazol-1-yl)azetidine-1-carbonyl]phenyl]-6-[(E)-but-2-enyl]-2-methyl-1H-pyrrolo[2,3-c]pyridin-7-one]",9
5,"C/C=C/Cn1cc(-c2cc(C(=O)N(C)C)ccc2F)c2cc[nH]c2c1=O [Example 41, 3-[6-[(E)-but-2-enyl]-7-oxo-1H-pyrrolo[2,3-c]pyridin-4-yl]-4-fluoro-N,N-dimethyl-benzamide]",130
6,"C/C=C/Cn1cc(-c2cccc(C(N)=O)c2)c2cc[nH]c2c1=O [Example 30, 3-[6-[(E)-but-2-enyl]-7-oxo-1H-pyrrolo[2,3-c]pyridin-4-yl]benzamide]",510
7,"C/C=C/Cn1cc(-c2ccc(C(=O)N3CCNCC3)c(Cl)c2)c2cc(C)[nH]c2c1=O [Example 116, (E)-6-(but-2-en-1-yl)-4-(3-chloro-4-(piperazine-1-carbonyl)phenyl)-2-methyl-1H-pyrrolo[2,3-c]pyridin-7(6H)-one]",4
8,"C=CCn1cc(-c2ccc(C(=O)N3CCOCC3)c(Cl)c2)c2cc(C)[nH]c2c1=O [Example 101, 6-allyl-4-[3-chloro-4-(morpholine-4-carbonyl)phenyl]-2-methyl-1H-pyrrolo[2,3-c]pyridin-7-one]",12
9,"CCCCn1cc(-c2ccc(C(C)(C)O)cc2OC)c2cc[nH]c2c1=O [Example 80, 6-butyl-4-[4-(1-hydroxy-1-methyl-ethyl)-2-methoxy-phenyl]-1H-pyrrolo[2,3-c]pyridin-7-one]",73
10,"C/C=C/Cn1cc(-c2cc(C(=O)NCc3cncnc3)ccc2OC)c2cc(C)[nH]c2c1=O [Example 120, 3-[6-[(E)-but-2-enyl]-2-methyl-7-oxo-1H-pyrrolo[2,3-c]pyridin-4-yl]-4-methoxy-N-(pyrimidin-5-ylmethyl)benzamide]",3
11,"C/C=C/Cn1cc(-c2cc(C(=O)NCc3cnccn3)ccc2OC)c2cc(C)[nH]c2c1=O [Example 109, 3-[6-[(E)-but-2-enyl]-2-methyl-7-oxo-1H-pyrrolo[2,3-c]pyridin-4-yl]-4-methoxy-N-(pyrazin-2-ylmethyl)benzamide]",6
12,"CCCCn1cc(-c2cc(OC)c(C(=O)N3CCOCC3)cc2OC)c2cc(C)[nH]c2c1=O [Example 121, 6-butyl-4-[2,5-dimethoxy-4-(morpholine-4-carbonyl)phenyl]-2-methyl-1H-pyrrolo[2,3-c]pyridin-7-one]",17
13,"COc1ccc(C(=O)N(C)C)cc1-c1cn(CCC2CC2)c(=O)c2[nH]c(C)cc12 [Example 88, 3-[6-(2-cyclopropylethyl)-2-methyl-7-oxo-1H-pyrrolo[2,3-c]pyridin-4-yl]-4-methoxy-N,N-dimethyl-benzamide]",300
14,"C/C=C/Cn1cc(-c2ccc(C(=O)N3CCC(C(N)=O)CC3)c(Cl)c2)c2cc(C)[nH]c2c1=O [Example 113, (E)-1-(4-(6-(but-2-en-1-yl)-2-methyl-7-oxo-6,7-dihydro-1H-pyrrolo[2,3-c]pyridin-4-yl)-2-chlorobenzoyl)piperidine-4-carboxamide]",3
15,"C/C=C/Cn1cc(-c2ccc(C(=O)N3CCOCC3)c(OC(C)C)c2)c2cc(C)[nH]c2c1=O [Example 114, 6-[(E)-but-2-enyl]-4-[3-isopropoxy-4-(morpholine-4-carbonyl)phenyl]-2-methyl-1H-pyrrolo[2,3-c]pyridin-7-one]",3
16,"CC(C)CCn1cc(-c2cccc(C(=O)N(C)C)c2)c2cc[nH]c2c1=O [Example 10, 3-(6-isopentyl-7-oxo-1H-pyrrolo[2,3-c]pyridin-4-yl)-N,N-dimethyl-benzamide]",320
17,"C/C=C/Cn1cc(-c2ccc(C(=O)N3CCCC3)cc2)c2cc(C)[nH]c2c1=O [Example 91, 6-[(E)-but-2-enyl]-2-methyl-4-[4-(pyrrolidine-1-carbonyl)phenyl]-1H-pyrrolo[2,3-c]pyridin-7-one]",13
18,"CCCCn1cc(-c2cc(C(=O)N(C)C)ccc2OC)c2cc(C)[nH]c2c1=O [Example 87, 3-(6-butyl-2-methyl-7-oxo-1H-pyrrolo[2,3-c]pyridin-4-yl)-4-methoxy-N,N-dimethyl-benzamide]",66
